The source of these data is patent US9499550B2 (BRISTOL-MYERS SQUIBB COMPANY, priority 2012, dated 2016).

Test [1] deals with HCV genotype 1a (H77 strain) replicon in HUH-7 cells. Description: HCV replicon luciferase reporter assay, genotype 1a. It is filed as cell-based. Conditions: Hepatitis C virus, Huh-7, 72 h, HCV genotype 1a replicon luciferase, 3 days incubation, read-out: LE_1a (EC50, range). Summed up:
(§1)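 Replicon inhibition for both genotypes was measured as Renilla luciferase signal (EnduRen, 7.5 μM final, 2 h) after 3-day, 37° C exposure of replicon-bearing HUH-7 cells in 4% FCS DMEM, 0.5% DMSO. The 1b construct carries S1179I; the 1a H77 construct carries P1496L and S2204I. Twenty-point, 3-fold dilutions were fitted four-parametrically for EC50, and CC50 was taken from multiplexed Cell Titer-Blue.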

The subject of test [2] is HCV genotype 1b (Con1) replicon in HUH-7 cells. As to the kind of experiment: HCV replicon luciferase reporter assay, genotype 1b. It is filed as cell-based. To be noted: Hepatitis C virus, Huh-7, 72 h, HCV genotype 1b replicon luciferase, 3 days incubation, read-out: LE_1b (EC50, range). In a few lines:
as §1

The structures appear in SMILES notation. Read-outs that look alike come from different tables or passages of the source.

Take `COc1ccc2c(O[C@@H]3C[C@H]4C(=O)N[C@]5(C(=O)NS(=O)(=O)C6(C)CC6)C[C@H]5/C=C\CC[C@@H](C)C[C@@H](C)[C@H](NC(=O)C5CCN(C(C)=O)CC5)C(=O)N4C3)ncc(OC)c2c1` [Compound 4141, (2R,6S,7R,9R,13aS,14aR,16aS,Z)-6-(1-acetylpiperidine-4-carboxamido)-2-(4,6-dimethoxyisoquinolin-1-yloxy)-7,9-dimethyl-N-(1-methylcyclopropylsulfonyl)-5,16-dioxo-1,2,3,5,6,7,8,9,10,11,13a,14,14a,15,16,16a-hexadecahydrocyclopropa[e]pyrrolo[1,2-a][1,4]diazacyclopentadecine-14a-carboxamide]: the EC50 in test [1] and in test [2] was 4.82 to 103 nM throughout.

Regarding `COc1ccc2c(O[C@@H]3C[C@H]4C(=O)N[C@]5(C(=O)NS(=O)(=O)C6(C)CC6)C[C@H]5/C=C\CC[C@@H](C)C[C@@H](C)[C@H](NC(=O)c5ccncc5F)C(=O)N4C3)ncc(OC)c2c1` [Compound 4142, (2R,6S,7R,9R,13aS,14aR,16aS,Z)-2-(4,6-dimethoxyisoquinolin-1-yloxy)-6-(3-fluoroisonicotinamido)-7,9-dimethyl-N-(1-methylcyclopropylsulfonyl)-5,16-dioxo-1,2,3,5,6,7,8,9,10,11,13a,14,14a,15,16,16a-hexadecahydrocyclopropa[e]pyrrolo[1,2-a][1,4]diazacyclopentadecine-14a-carboxamide], the EC50 in test [1] and in test [2] was under 5.46 nM each time.

`COc1ccc2c(O[C@@H]3C[C@H]4C(=O)N[C@]5(C(=O)NS(=O)(=O)C6(C)CC6)C[C@H]5/C=C\CC[C@@H](C)C[C@@H](C)[C@H](NC(=O)c5ccn(C)c(=O)c5)C(=O)N4C3)ncc(OC)c2c1` [Compound 4143, (2R,6S,7R,9R,13aS,14aR,16aS,Z)-2-(4,6-dimethoxyisoquinolin-1-yloxy)-7,9-dimethyl-6-(1-methyl-2-oxo-1,2-dihydropyridine-4-carboxamido)-N-(1-methylcyclopropylsulfonyl)-5,16-dioxo-1,2,3,5,6,7,8,9,10,11,13a,14,14a,15,16,16a-hexadecahydrocyclopropa[e]pyrrolo[1,2-a][1,4]diazacyclopentadecine-14a-carboxamide]: the half-maximal effective concentration (EC50) in test [1] and in test [2] was 4.82 to 103 nM throughout.

Turning to `COc1ccc2c(O[C@@H]3C[C@H]4C(=O)N[C@]5(C(=O)NS(=O)(=O)C6(C)CC6)C[C@H]5/C=C\CC[C@@H](C)C[C@@H](C)[C@H](NC(=O)OC(C)(C)C)C(=O)N4C3)ncnc2c1` [Compound 4144, tert-butyl (2R,6S,7R,9R,13aS,14aR,16aS,Z)-2-(7-methoxyquinazolin-4-yloxy)-7,9-dimethyl-14a-(1-methylcyclopropylsulfonylcarbamoyl)-5,16-dioxo-1,2,3,5,6,7,8,9,10,11,13a,14,14a,15,16,16a-hexadecahydrocyclopropa[e]pyrrolo[1,2-a][1,4]diazacyclopentadecin-6-ylcarbamate], the EC50 in test [1] and in test [2] was under 5.46 nM throughout.

Take `C[C@@H]1CC/C=C\[C@@H]2C[C@@]2(C(=O)NS(=O)(=O)C2(C)CC2)NC(=O)[C@@H]2C[C@@H](Oc3ncnc4c(Cl)cccc34)CN2C(=O)[C@@H](NC(=O)OC(C)(C)C)[C@H](C)C1` [Compound 4145, tert-butyl (2R,6S,7R,9R,13aS,14aR,16aS,Z)-2-(8-chloroquinazolin-4-yloxy)-7,9-dimethyl-14a-(1-methylcyclopropylsulfonylcarbamoyl)-5,16-dioxo-1,2,3,5,6,7,8,9,10,11,13a,14,14a,15,16,16a-hexadecahydrocyclopropa[e]pyrrolo[1,2-a][1,4]diazacyclopentadecin-6-ylcarbamate]: the EC50 in test [1] and in test [2] was under 5.46 nM throughout.

For the compound `COc1ccc2c(O[C@@H]3C[C@H]4C(=O)N[C@]5(C(=O)NS(=O)(=O)C6(CF)CC6)C[C@H]5/C=C\CC[C@@H](C)C[C@@H](C)[C@H](NC(=O)OC(C)(C)C)C(=O)N4C3)nccc2c1` [Compound 4147, tert-butyl (2R,6S,7R,9R,13aS,14aR,16aS,Z)-14a-(1-(fluoromethyl)cyclopropylsulfonylcarbamoyl)-2-(6-methoxyisoquinolin-1-yloxy)-7,9-dimethyl-5,16-dioxo-1,2,3,5,6,7,8,9,10,11,13a,14,14a,15,16,16a-hexadecahydrocyclopropa[e]pyrrolo[1,2-a][1,4]diazacyclopentadecin-6-ylcarbamate], the EC50 in test [1] and in test [2] was under 5.46 nM in each case.

For `COc1ccc2c(O[C@@H]3C[C@H]4C(=O)N[C@]5(C(=O)NS(=O)(=O)C6(CF)CC6)C[C@H]5/C=C\CC[C@@H](C)C[C@@H](C)[C@H](NC(=O)OC(C)(C)C(F)(F)F)C(=O)N4C3)cc(-c3ccc(OC(C)C)cc3)nc2c1` [Compound 4148], the EC50 in test [1] (GETYPE1A) and in test [2] (GETYPE1B) was under 5.46 nM in each case.

For `CCOc1cnc(O[C@@H]2C[C@H]3C(=O)N[C@]4(C(=O)NS(=O)(=O)C5(CF)CC5)C[C@H]4/C=C\CC[C@@H](C)C[C@@H](C)[C@H](NC(=O)OC(C)(C)C(F)(F)F)C(=O)N3C2)c2ccccc12` [Compound 4149], the EC50 in test [1] (GETYPE1A) and in test [2] (GETYPE1B) was under 5.46 nM throughout.

For `COc1ccc2c(O[C@@H]3C[C@H]4C(=O)N[C@]5(C(=O)NS(=O)(=O)C6(CF)CC6)C[C@H]5/C=C\CC[C@@H](C)C[C@@H](C)[C@H](NC(=O)OC(C)(C)C(F)(F)F)C(=O)N4C3)nccc2c1` [Compound 4151], the 50% effective concentration (EC50) in test [1] (GETYPE1A) and in test [2] (GETYPE1B) was under 5.46 nM throughout.

As to `COc1cnc(O[C@@H]2C[C@H]3C(=O)N[C@]4(C(=O)NS(=O)(=O)C5(Cl)CC5)C[C@H]4/C=C\CC[C@@H](C)C[C@@H](C)[C@H](NC(=O)OC(C)(C)C(F)(F)F)C(=O)N3C2)c2ccccc12` [Compound 4153], the EC50 in test [1] (GETYPE1A) and in test [2] (GETYPE1B) was under 5.46 nM in each case.

For `COc1ccc2c(O[C@@H]3C[C@H]4C(=O)N[C@]5(C(=O)NS(=O)(=O)C6(CF)CC6)C[C@H]5/C=C\CC[C@@H](C)C[C@@H](C)[C@H](NC(=O)OC(C)(C)C(F)(F)F)C(=O)N4C3)ncc(OC)c2c1` [Compound 4154], the EC50 in test [1] (GETYPE1A) and in test [2] (GETYPE1B) was under 5.46 nM each time.

`COc1cnc(O[C@@H]2C[C@H]3C(=O)N[C@]4(C(=O)NS(=O)(=O)C5(CF)CC5)C[C@H]4/C=C\CC[C@@H](C)C[C@@H](C)[C@H](NC(=O)OC(C)(C)C(F)(F)F)C(=O)N3C2)c2ccccc12` [Compound 4155]: the EC50 in test [1] (GETYPE1A) and in test [2] (GETYPE1B) was under 5.46 nM each time.

On to `COc1ccc2c(O[C@@H]3C[C@H]4C(=O)N[C@]5(C(=O)NS(=O)(=O)C6(CF)CC6)C[C@H]5/C=C\CC[C@@H](C)C[C@@H](C)[C@H](NC(=O)OC(C)(C)C)C(=O)N4C3)ncc(OC)c2c1` [Compound 4156, tert-butyl (2R,6S,7R,9R,13aS,14aR,16aS,Z)-2-(4,6-dimethoxyisoquinolin-1-yloxy)-14a-(1-(fluoromethyl)cyclopropylsulfonylcarbamoyl)-7,9-dimethyl-5,16-dioxo-1,2,3,5,6,7,8,9,10,11,13a,14,14a,15,16,16a-hexadecahydrocyclopropa[e]pyrrolo[1,2-a][1,4]diazacyclopentadecin-6-ylcarbamate], for which the EC50 in test [1] and in test [2] was under 5.46 nM each time.
